Measurements as given in publication PMC6222853 (Molecules : A Journal of Synthetic Chemistry and Natural …, 2018).

Assays:
yeast α-glucosidase = biological target: T1, yeast α-glucosidase (Saccharomyces cerevisiae, UniProt P53341); test: α-Glucosidase inhibition assay; type: biochemical
T1 construct: purchased Sigma-Aldrich (Saint Louis, MO, USA)
Protocol: The α-glucosidase assay was performed with slight modifications of a previous method. In short, 15 µL of the test sample at various concentrations was added to 140 µL of enzyme solution (0.0073 U/mL of α-glucosidase in 0.05 M sodium phosphate buffer containing 100 mM NaCl) in a 96-well plate. Reaction mixtures were incubated at 37 °C for 15 min. Then, 25 µL of 0.7 mM p-nitrophenyl-α-D-glucopyranoside (PNPG) solution in 0.05 M sodium phosphate buffer (pH 6.8) was added to each well.

egg albumin = biological target: T2, egg albumin (Gallus gallus, UniProt P01012); test: Albumin denaturation inhibition assay; parameters: species or system chicken; conditions: for IC50: egg albumin, heated at 70 °C, in vitro
T2 sequence (P01012 1-386): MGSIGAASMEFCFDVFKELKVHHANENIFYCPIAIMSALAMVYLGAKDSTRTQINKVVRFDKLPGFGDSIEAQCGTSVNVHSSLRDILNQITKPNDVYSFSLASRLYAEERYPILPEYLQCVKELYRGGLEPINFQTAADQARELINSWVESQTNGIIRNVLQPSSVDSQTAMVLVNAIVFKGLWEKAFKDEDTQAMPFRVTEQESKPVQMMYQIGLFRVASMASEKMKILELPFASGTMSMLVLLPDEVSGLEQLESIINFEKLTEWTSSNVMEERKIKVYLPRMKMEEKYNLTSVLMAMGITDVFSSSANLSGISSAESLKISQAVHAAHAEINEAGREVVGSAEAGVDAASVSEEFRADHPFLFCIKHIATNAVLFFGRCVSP
Protocol: Albumin denaturation inhibition effects of the compounds were confirmed through a previously described method. Egg albumin was used in this experiment, and the reaction mixture contained 0.1 mL of egg albumin, 0.7 mL of phosphate-buffered saline (PBS), and varying concentrations of different compounds (0.5 mL). Mili-Q water (0.5 mL) instead of the compounds was used in the negative control. The reaction mixtures were incubated at 37 °C for 15 min and heated at 70 °C for 5 min. The absorbance was measured at 660 nm after cooling at room temperature. Ketorolac was used as a standard drug. Percentage of albumin denaturation inhibition was calculated according to the following formula:Percentage of inhibition = (1 − (A/B)) × 100, where A is the absorbance of the test sample, and B is the absorbance of the negative control.

[1] = tested on: LPS-stimulated RAW 264.7 cells; test: Nitrite inhibition assay in LPS-stimulated cells; type: cell-based; conditions: Mus musculus; for IC50: RAW264.7, 24 h, read-out: Nitrite Inhibition (IC50 Value)
Protocol: As an indicator of NO synthesis, nitrite amount was measured in the supernatant of LPS-stimulated RAW 264.7 cells. Cells were plated on a 24-well plate with a density of 2 × 10^5 cells/well. After seeding, cells were treated with LPS (500 ng/mL final concentration) and varying concentrations of the test compounds for 24 h. Ketorolac (200 μM) was used as a standard drug. Then, 100 μL of culture supernatant from each well was mixed with an equal volume of Griess reagent, and incubated at room temperature for 10 min. The formation of an azo compound was measured spectrophotometrically at 550 nm wavelength. Finally, nitrite concentration was determined from a standard curve of sodium nitrite, and nitrite inhibition percentages of test compounds and the reference drug were calculated based on the amount of nitrite produced by the control cells (treated only with LPS).

COX-2 = biological target: T3, COX-2 (Mus musculus, UniProt Q05769); test: Cell-based assay for COX-2 inhibition (PGE2 ELISA); conditions: LPS-induced RAW 264.7 cells, conversion of arachidonic acid to PGE2
T3 construct: treated with 500 ng/mL LPS for the next 24 h to induce the production of COX-2; endogenous in cells; host or cells: RAW 264.7 cells, LPS-induced
T3 sequence (Q05769 18-604): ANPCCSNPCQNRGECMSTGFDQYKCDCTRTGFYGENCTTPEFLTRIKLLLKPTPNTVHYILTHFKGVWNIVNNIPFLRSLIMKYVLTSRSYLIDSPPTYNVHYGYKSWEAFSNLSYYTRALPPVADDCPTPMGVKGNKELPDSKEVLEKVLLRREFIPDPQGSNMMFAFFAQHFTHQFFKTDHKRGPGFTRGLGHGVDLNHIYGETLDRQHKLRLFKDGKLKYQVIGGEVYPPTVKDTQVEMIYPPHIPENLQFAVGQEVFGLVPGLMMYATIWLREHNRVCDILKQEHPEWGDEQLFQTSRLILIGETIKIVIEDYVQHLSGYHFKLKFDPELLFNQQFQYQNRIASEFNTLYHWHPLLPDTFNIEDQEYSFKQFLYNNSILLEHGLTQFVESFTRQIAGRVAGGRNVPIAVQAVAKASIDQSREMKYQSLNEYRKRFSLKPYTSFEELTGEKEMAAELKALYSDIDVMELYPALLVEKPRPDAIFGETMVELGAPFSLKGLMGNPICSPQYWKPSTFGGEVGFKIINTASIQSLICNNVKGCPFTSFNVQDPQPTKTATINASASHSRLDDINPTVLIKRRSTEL
Protocol: This assay was carried out according to the method described by Stanikunaite et al. with some modifications. In brief, RAW 264.7 cells (2 × 10^5 cells/well) were cultured in a 24-well plate in DMEM supplemented with 10% FBS and incubated at 37 °C for 24 h for seeding. After seeding, cells were washed with PBS (400 µL) and treated with 500 ng/mL LPS for the next 24 h to induce the production of COX-2. Then, the induced cells were washed thoroughly with PBS to remove LPS completely and treated with different concentrations of test compounds for 4 h. Arachidonic acid (300 µM) was added and the cells were further incubated for 30 min. Next, the PGE2 levels were determined in the culture supernatant using a PGE2 ELISA kit (Cayman Chemical Co., Ann Arbor, MI, USA) according to the manufacturer’s instructions. COX-2 enzyme activity was determined by the conversion of exogenous arachidonic acid to PGE2, and was expressed as the percentage of negative control (without test compounds). Finally, IC50 values were calculated for all the tested compounds. Indomethacin was used as a positive control.

electric eel AChE = biological target: T4, electric eel AChE (Electrophorus electricus, UniProt O42275); test: biochemical; conditions: in vitro, electric eel enzyme; read-out: AChE inhibition IC50
T4 construct: purchased Sigma-Aldrich (Saint Louis, MO, USA)
Protocol: The AChE inhibitory properties of the compounds were determined using a 96-well microplate colorimetric method as described by Ellman et al.. Donepezil was used as a positive control.

RAW 264.7 cells = test: cells; type: cell-based; conditions: Mus musculus, RAW264.7, 24 h, read-out: Inhibition of cell proliferation, deviation from the control group
Protocol: RAW 264.7 cell viability was evaluated through the MTT assay. Cells were seeded in a 24-well plate at a density of 2 × 10^5 cells/well and incubated with the OP compounds for 24 h. Ketroloac (200 μM) was also assessed to determine its cytotoxicity on RAW 264.7 cells. After incubation, the supernatant was removed, and the cells were washed with PBS. Aliquots of 100 μL of MTT solution (0.5 mg/mL in PBS) were added to each well, and the plate was incubated at 37 °C for 3 h. Afterwards, dimethyl sulfoxide (400 μL) was added to each well, and the plate was shaken for 10 min at room temperature to dissolve the formazan crystals. The absorbance was measured at 570 nm wavelength using a microplate reader, and the cell viability was calculated from the absorbance of the treated versus untreated control cells.

T1 sequence (P53341 whole entry): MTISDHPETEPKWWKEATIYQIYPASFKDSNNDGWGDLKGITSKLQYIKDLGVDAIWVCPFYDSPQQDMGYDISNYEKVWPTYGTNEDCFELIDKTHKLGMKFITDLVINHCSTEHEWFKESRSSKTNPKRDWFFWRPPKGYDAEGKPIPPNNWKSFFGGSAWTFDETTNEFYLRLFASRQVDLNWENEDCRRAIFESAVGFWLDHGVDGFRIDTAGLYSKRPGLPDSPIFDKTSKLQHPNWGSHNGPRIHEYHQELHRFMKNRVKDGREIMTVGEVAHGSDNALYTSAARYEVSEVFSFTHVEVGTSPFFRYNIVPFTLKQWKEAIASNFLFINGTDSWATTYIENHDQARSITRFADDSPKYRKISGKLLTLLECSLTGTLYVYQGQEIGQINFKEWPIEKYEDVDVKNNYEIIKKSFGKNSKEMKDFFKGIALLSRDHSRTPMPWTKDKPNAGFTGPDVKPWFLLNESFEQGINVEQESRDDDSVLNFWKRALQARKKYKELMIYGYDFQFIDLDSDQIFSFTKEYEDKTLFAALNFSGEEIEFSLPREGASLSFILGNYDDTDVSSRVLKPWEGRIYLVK
T4 sequence (O42275 24-633): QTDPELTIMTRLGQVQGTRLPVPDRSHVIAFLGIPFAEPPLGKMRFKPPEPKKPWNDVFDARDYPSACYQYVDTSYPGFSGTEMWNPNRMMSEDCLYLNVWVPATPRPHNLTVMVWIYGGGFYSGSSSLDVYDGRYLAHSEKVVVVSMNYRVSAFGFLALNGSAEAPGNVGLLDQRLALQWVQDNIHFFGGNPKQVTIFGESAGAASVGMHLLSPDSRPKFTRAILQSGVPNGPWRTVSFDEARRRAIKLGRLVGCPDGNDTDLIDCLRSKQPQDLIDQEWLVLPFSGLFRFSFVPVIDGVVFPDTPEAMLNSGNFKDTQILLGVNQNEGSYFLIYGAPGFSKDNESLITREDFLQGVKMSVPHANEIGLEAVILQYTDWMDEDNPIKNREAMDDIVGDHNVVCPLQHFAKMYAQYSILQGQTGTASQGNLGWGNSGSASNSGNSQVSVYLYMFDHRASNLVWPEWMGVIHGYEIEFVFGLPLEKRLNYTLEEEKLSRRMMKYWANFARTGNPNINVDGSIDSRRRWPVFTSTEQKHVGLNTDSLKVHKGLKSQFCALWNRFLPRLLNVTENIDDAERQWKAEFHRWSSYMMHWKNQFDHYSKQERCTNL

SMILES | IC50 (yeast α-glucosidase) [µM] | IC50 (egg albumin) [µM] | IC50 [1] [µM] | IC50 (COX-2) [µM] | IC50 (electric eel AChE) [µM] | inhibition at 12 µM (RAW 264.7 cells) [%] | inhibition at 200 µM (egg albumin; at 200 µM) [%] | inhibition at 200 µM ([1]; RAW264.7, 200 μM, compared to cells treated only with LPS, read-out: Inhibition of nitrite formation in the supernatant) [%]
CC(C)=CCC/C(C)=C/Cc1cc([C@@H]2CC(=O)c3c(O)cc(O)cc3O2)ccc1O [GN, 3′-geranyl-naringenin] | 5.4 | 1.02 | 7 | 24 | 12.3 | – | – | –
CC(C)=CCC/C(C)=C/Cc1cc(C2CC(=O)c3c(O)cc(O)cc3O2)cc(O)c1O (centres unmarked) [INB, isonymphaeol-B] | 5.12 | 0.42 | 6.2 | 23.8 | 7.23 | 3 to 5 | – | –
CC(C)=CCC/C(C)=C/Cc1c(O)cc2c(c1O)C(=O)C[C@@H](c1ccc(O)c(O)c1)O2 [NA, nymphaeol-A] | 3.77 | 0.26 | 3.2 | 11.7 | 7.77 | – | – | –
CC(C)=CCC/C(C)=C/Cc1c([C@@H]2CC(=O)c3c(O)cc(O)cc3O2)ccc(O)c1O [NB, nymphaeol-B] | 5.66 | 0.54 | 5.4 | 17.9 | 15.1 | 3 to 5 | – | –
CC(C)=CCC/C(C)=C/Cc1c([C@@H]2CC(=O)c3c(cc(O)c(CC=C(C)C)c3O)O2)ccc(O)c1O [NC, nymphaeol-C] | 4.09 | 0.37 | 2.4 | 15.4 | 15.7 | – | – | –
O=C(c1ccccc1)c1ccc2n1CCC2C(=O)O (centres unmarked) [ketorolac, reference compound] | – | – | – | – | – | – | 52 | 26
